From PMC12057341, “In vitro pharmacokinetic/pharmacodynamic modeling of the effect of mucin on polymyxin B activity against Acinetobacter baumannii” (Antimicrobial Agents and Chemotherapy, 2025)
“Also recorded” adds a separate entry of the source. Where a SMILES comes first, the peptide text is derived from it. Bridges are numbered along the chain shown (N, C = ends). [ ]: non-standard residue; d: D form. The star is where a group is joined. X1 = CC[C@H](C)CCCCC(=O)*; Dab = NCC[C@H](N)C(=O)O

Key:
[1] = test system: Acinetobacter baumannii AB121-D0; assay: Time-kill experiments and PK/PD modeling, AB121-D0; assay type: cell-based; details: for Unbound PMB concentrations at which regrowth was observed in TK: CAMHB + 1% mucin
Description: (§1) Bacteria were cultured overnight under shaking (150–170 rpm) in CAMHB at 35°C. The bacterial suspension was then diluted to 1/50 and incubated at 35°C under shaking until an optical density of 0.3 (corresponding to 1.10^8 CFU/ml of bacteria in the exponential growth phase) was achieved. This bacterial suspension was then diluted in order to obtain a starting inoculum at 1.10^6 CFU/mL. TK experiments were performed in CAMHB in the absence and presence of 1% mucin. PMB concentrations varied from 0.5 mg/L to 128 mg/L for AB121-D0 and 8 mg/L to 512 mg/L for AB122-D12. Drug-free CAMHB was used as bacterial growth control for each strain. Tubes were incubated at 35°C under shaking (150–170 rpm), and aliquots were sampled over time at T0h, T1h, T3h, T6h, T10h, T24h, and T30h. Samples were serially diluted in NaCl 0.9% and plated onto Mueller-Hinton agar supplemented with 1% activated charcoal (to prevent PMB carry-over effect). Bacteria were counted after overnight incubation at 35°C. The limit of quantification was fixed based on CLSI guidelines ([38]) and was equal to 400 CFU/ml (i.e. 2.6 log10 CFU/mL). Experiments were conducted in triplicate for both strains.
(§2) Bacterial counts obtained from TK experiments without mucin were first modeled using NONMEM 7.4 (ICON plc, Dublin, Ireland) with the Laplacian algorithm and the M3 method for handling observations below the limit of quantification ([39]). PMB was assumed to be stable over the course of the experiment as previously shown ([40]). A previously described model with hetero-resistance ([41]), that is, two bacterial subpopulations, one susceptible to PMB (S) and one resistant (R), was used to describe the time course of bacterial counts for the two A. baumannii strains (Fig. 1). Different functions were tested to characterize the PMB killing effect (see supplemental material for model building).
Then, TK data in the presence of mucin were included in the data set and PMB total concentrations were corrected for mucin binding using equation 1, with unbound PMB concentrations driving the antibacterial effect. Random variability between TK experiments (one experiment corresponding to a replicate of a tested concentration) was included to account for the uncertainty associated with each parameter of equation 1 and thus with the estimation of unbound PMB concentration in TK, such as:
An impact of mucin on PD model parameters was tested on top of PMB binding to mucin with the following equation:
(4) Pj=θj,1×(1−Mucin)+θj,2×Mucin,
where Pj was the jth parameter of the PD model, Mucin was a categorical variable either equal to 0 or 1 depending on its absence or presence in TK experiments respectively, θj,1 and θj,2 corresponded to the Pj value in the absence and in the presence of mucin, respectively. […]

[2] = test system: Acinetobacter baumannii AB121-D0; assay: MIC at the end (T30h) of TK experiments after regrowth, AB121-D0; assay type: cell-based
Description: (§3) PMB MICs of both A. baumannii strains were determined in commercial CAMHB (BioMérieux, Marcy-l’Etoile, France) according to the European Committee on Antimicrobial Susceptibility Testing and Clinical and Laboratory Standards Institute (CLSI) recommendations ([33], [34]). PMB MICs of the two A. baumannii isolates were also determined at least in duplicate in CAMHB supplemented with 1% of mucin.
(§4) Samples were centrifuged (8 minutes at 8,000 rpm); then, the supernates were removed, and the pellets were stored at −80°C in CAMHB-glycerol 20%. A minimum bacterial density of ~10^5 CFU/mL in samples collected at the end of TK experiments was required for MIC susceptibility testing and sequencing.
(§5) Prior to MIC testing, the isolates were streaked onto a drug-free Mueller-Hinton agar plate and incubated for 24 h.

[3] = test system: Acinetobacter baumannii AB121-D0; assay: PMB MIC in CAMHB with or without 1% mucin, AB121-D0; assay type: cell-based
Description: Two clinical MDR strains of A. baumannii, isolated from a patient before (AB121-D0) and 12 days after treatment with colistin (AB122-D12), were used during this study ([32]). AB122-D12 carries a 10 amino acid insertion into the pmrB gene, known to confer PMB resistance.
as §3

[4] = test system: Acinetobacter baumannii AB122-D12; assay: MIC at the end (T30h) of TK experiments after regrowth, AB122-D12; assay type: cell-based
Description: as §3, §4, §5

[5] = assumed for TK modeling, as previously shown; cited from earlier work
From the text: as §2, with “w ...” for “were tested to characterize the PMB killing effect (see supplemental material for model building).”

[6] = test system: Acinetobacter baumannii AB122-D12; assay: Time-kill experiments and PK/PD modeling, AB122-D12; assay type: cell-based
Description: as §1, §2
Then, TK data in the presence of mucin were included in the data set and PMB total concentrations were corrected for mucin binding using equation 1, with unbound PMB concentrations driving the antibacterial effect. […]

[7] = with and without mucin together

Compound: CC[C@H](C)CCCCC(=O)N[C@@H](CCN)C(=O)N[C@H](C(=O)N[C@@H](CCN)C(=O)N[C@H]1CCNC(=O)[C@H]([C@@H](C)O)NC(=O)[C@H](CCN)NC(=O)[C@H](CCN)NC(=O)[C@H](CC(C)C)NC(=O)[C@@H](Cc2ccccc2)NC(=O)[C@H](CCN)NC1=O)[C@@H](C)O [PMB, polymyxin B] (X1-[Dab]T[Dab][Dab][Dab][dF]L[Dab][Dab]T; lactam 4-C)
- Fold increase of EmaxR in the presence of mucin ([1]; 1% mucin vs no mucin): 1.4 fold
- Unbound PMB concentrations at which regrowth was observed in TK ([1]; one-third of replicates): ≤ 13 mg/L
- Unbound PMB concentrations at which regrowth was observed in TK ([1]; two-thirds of replicates): ≤ 0.5 mg/L
- PMB concentrations up to which regrowth was observed in TK after initial CFU decay ([1]; CAMHB without mucin, 30 h): up to 8 mg/L
- MIC fold-change vs control of respective replicate ([2]; TK in CAMHB + 1% mucin, PMB 0.25 mg/L, replicate 3, pmrB Phe164Ile): >64
- MIC fold-change vs control of respective replicate ([2]; TK in CAMHB + 1% mucin, PMB 0.5 mg/L, replicate 2, pmrB Pro170Leu): >32
- MIC fold-change vs control of respective replicate ([2]; TK in CAMHB + 1% mucin, PMB 0.5 mg/L, replicate 3, pmrB Arg231Leu): >64
- MIC fold-change vs control of respective replicate ([2]; TK in CAMHB + 1% mucin, PMB 13 mg/L, replicate 4, pmrB Ala227Val): >64
- MIC fold-change vs control of respective replicate ([2]; TK in CAMHB, PMB 0.5 mg/L, replicate 2, pmrB Arg263His): >32
- MIC fold-change vs control of respective replicate ([2]; TK in CAMHB, PMB 0.5 mg/L, replicate 3, ISAba1 insertion in the promoter of pmrC_3): 32
- MIC fold-change vs control of respective replicate ([2]; TK in CAMHB, PMB 0.5 mg/L, replicate 4, pmrB Asn353Tyr): >64
- MIC fold-change vs control of respective replicate ([2]; TK in CAMHB, PMB 1 mg/L, replicate 4, pmrB 16.25dup): 32
- MIC fold-change vs control of respective replicate ([2]; TK in CAMHB, PMB 4 mg/L, replicate 2, pmrB Pro170Leu): >32
- Regrowth samples at T30h with MIC increased (≥32-fold) compared to control ([2]; TK in the absence of mucin, 6 out of 10 samples): 60%
- Regrowth samples at T30h with MIC increased (same order of magnitude, ≥32-fold) compared to control ([2]; TK in the presence of mucin, 5 out of 16 samples): 31%
- Cases of regrowth associated with an increase in the MIC at T30h [2, 7]: 42%
- MICu (corrected by fu) ([3]; CAMHB + 1% mucin, unbound MIC = MIC x fu): 13 mg/L
- MICu ratio in the presence and absence of mucin ([3]; MIC with 1% mucin corrected by fu): 13
- Fold increase of MIC in the presence of 1% mucin compared to CAMHB ([3]; total concentrations): 64 fold
- MIC fold-change vs control of respective replicate ([4]; TK in CAMHB + 1% mucin, PMB 48 mg/L, replicate 2, lpxA Ser224Pro): 4
- MIC fold-change vs control of respective replicate ([4]; TK in CAMHB + 1% mucin, PMB 135 mg/L, replicate 3, ISAba13 insertion in the promoter of lpxC): 8
- MIC fold-change vs control of respective replicate ([4]; TK in CAMHB + 1% mucin, PMB 135 mg/L, replicate 4, ISAba13 insertion in the promoter of lpxC): 4
- MIC fold-change vs control of respective replicate ([4]; TK in CAMHB, PMB 16 mg/L, replicate 1, lpxA Arg258Leu): 4
- MIC fold-change vs control of respective replicate ([4]; TK in CAMHB, PMB 128 mg/L, replicate 1, lpxA Trp206Arg Thr210Ala): 2
- MIC fold-change vs control of respective replicate ([4]; TK in CAMHB, PMB 128 mg/L, replicate 2, lpxA Trp206Arg Thr210Ala): 0.25
- Regrowth samples at T30h with ≥fourfold increase in MIC compared with control ([4]; TK in the absence of mucin, 2/18 samples): 11%
- Regrowth samples at T30h with ≥fourfold increase in MIC compared with control ([4]; TK in the presence of mucin, 5/26 samples): 19%
- Cases of regrowth associated with an increase in the MIC at T30h [4, 7]: 16%
- Stability over the course of the experiment [5]: stable
- Fold increase of EC50 in the presence of mucin ([6]; 1% mucin vs no mucin, both S and R subpopulations): increased approx. fivefold; also recorded: fivefold increase
- Unbound PMB concentration able to prevent bacterial regrowth in TK ([6]; CAMHB + 1% mucin, no concentration in the range tested prevented regrowth): > 304 mg/L
- PMB concentrations up to which regrowth was observed in TK after initial CFU decay ([6]; CAMHB without mucin, 30 h): ≤ 128 mg/L
